The subject of one series is db/db mice. Put plainly: Oral glucose tolerance test in db/db mice (blood glucose and blood lactic acid levels). Type of series: in vivo, mice (C57BLKS/J-m+/+Lepr<db>(db/db)). The settings on record: subcutaneous, 30 min before oral glucose 3 g/kg, AUC up to 2 hours. An excerpt:
In a glucose tolerance test with oral administration to db/db mice, approximately 50% suppression of blood glucose level in the db/db mice produces a level increase similar to that of healthy mice, and therefore a blood glucose reduction rate of at least 40%, and especially at least 50%, is preferred.
Measurement of blood glucose reduction rate in db/db mice by a glucose tolerance test with oral administration may be carried out by a publicly known method, but the following method is preferred. Specifically, 11- to 17-week-old female mice (C57BLKS/J-m+/+Lepr(db/db) ) are starved for 18-24 hours. A group of five or six mice is used for the test. Blood is sampled from the tail for measurement of the blood glucose levels before treatment as a control. After sampling, the biguanide derivative is dissolved in phosphate-buffered saline to a suitable concentration and subcutaneously administered at a dose of 5 ml/kg. As a control there are prepared mice administered only the solvent. Glucose is then administered orally at a dose of 3 g/6 ml/kg at 30 minutes after administration of the compound or solvent as an oral glucose tolerance test. Blood is sampled from the tail for measurement of the blood glucose levels 30 minutes, 1 hour and 2 hours after glucose administration. The blood glucose levels are measured using a New Blood Sugar Test (Roche Diagnostics) or a Glucose CII-Test Wako (Wako Pure Chemical Industries, Ltd.).
(§1) The blood glucose reduction rate is calculated according to the following formula.
Blood glucose reduction rate (%)=[(AUC for blood glucose increase level of solvent-administered group—AUC for blood glucose increase level of compound-administered group)/AUC for blood glucose increase level of solvent-administered group]×100
The AUC for blood glucose increase level represents the area of the increase portion in a graph of the blood glucose level changes after glucose administration plotted with respect to time, up to 2 hours after glucose administration, with the glucose level prior to glucose administration as the baseline. Specifically, the AUC for the blood glucose increase level may be calculated by the following formula, where A=blood glucose level before glucose administration, B=blood glucose level 30 minutes after glucose administration, C=blood glucose level 1 hour after glucose administration, D=blood glucose level 2 hours after glucose administration.
AUC for blood glucose increase level=0.5×((A+B)/2-A)+0.5×((B+C)/2-A)+1×((C+D)/2-A)
Measurement of blood glucose reduction rate and blood lactic acid levels by the aforementioned oral glucose tolerance test may be carried out by a publicly known method, and the measurement of the former may be carried out by the method described above, while the following method is preferred for measurement of the latter. Specifically, 11- to 17-week-old female mice (C57BLKS/J-m+/+Lepr(db/db)) are starved for 18-24 hours. A group of five or six mice is used for the test. Blood is sampled from the tail for measurement of the blood lactic acid levels before treatment as a control. After sampling, the biguanide derivative is dissolved in phosphate-buffered saline to a suitable concentration and subcutaneously administered at a dose of 5 ml/kg. As a control there are prepared mice administered only the solvent. Glucose is then administered orally at a dose of 3 g/6 ml/kg at 30 minutes after administration of the compound or solvent as an oral glucose tolerance test. Blood is sampled from the tail for measurement of the blood lactic acid levels 30 minutes, 1 hour and 2 hours after glucose administration. The blood lactic acid levels are measured using an “Asuka Sigma” (Sigma Diagnostics)
The blood lactic acid level increase rate is calculated according to the following formula. […]

A further series has as its system KKAy mice. Put plainly: Hypoglycemic test by oral administration using KKAy mice. In kind it is in vivo, mice (KKAy/Ta). The settings on record: AUC for blood glucose up to 6 hours after administration.
From the text: The strength of the insulin sensitivity-enhancing effect may be evaluated based on the degree of blood glucose reduction rate with administration of the drug agent to KKAy mice. […] In hypoglycemic tests by oral administration using KKAy mice, approximately 45% suppression of blood glucose level in KKAy mice produces a level similar to healthy mice, and therefore a blood glucose reduction rate of 40-50% is preferred.
Measurement of blood glucose reduction rate in KKAy mice by a hypoglycemic test with oral administration may be carried out by a publicly known method, but the following method is preferred.
Specifically, a group of six 11-week-old male mice (KKAy/Ta) is used for the test. Blood is sampled from the tail for measurement of the blood glucose levels before treatment as a control. After sampling, the biguanide derivative is dissolved in a 0.5% CMC-Na (sodium carboxymethyl cellulose) solution to a suitable concentration and orally administered at a dose of 10 mL/kg. As a control there are prepared mice administered only the solvent. Blood is sampled from the tail to measure the blood glucose levels 1, 2, 4 and 6 hours after administration of the drug. The blood glucose levels are measured using a Glucose CII-Test Wako (Wako Pure Chemical Industries, Ltd.).
as §1
Blood glucose reduction rate (%)=[(AUC for blood glucose of control group—AUC for blood glucose of compound-administered group)/AUC for blood glucose of control group]×100
The AUC for blood glucose represents the area in a graph of the blood glucose level changes after administration of the drug plotted with respect to time, up to 6 hours after administration with a glucose level of 0 as the baseline. Specifically, the AUC for the blood glucose level may be calculated by the following formula, where A=blood glucose level before drug administration, B=blood glucose level 1 hour after drug administration, C=blood glucose level 2 hours after drug administration, D=blood glucose level 4 hours after drug administration, E=blood glucose level 6 hours after drug administration.
AUC for blood glucose level=1×((A+B)/2)+1×((B+C)/2)+2×((C+D)/2)+2×((D+E)/2)
A group of six 11-week-old male mice (KKAy/Ta) was used for the test. Blood was sampled from the tail for measurement of the blood glucose levels before treatment as a control. After sampling, furfuryl biguanide was dissolved in a 0.5% CMC-Na (sodium carboxymethyl cellulose) solution to a suitable concentration and orally administered at 10 mL/kg with the dosages shown in Table 1 (Examples 1-5). For comparison, metformin was also orally administered to mice in the doses shown in Table 1 (Comparative Examples 1-5). As a control there were prepared mice which had been orally administered the solvent alone. Blood was sampled from the tail to measure the blood glucose levels 1, 2, 4 and 6 hours after administration of the drug, and the blood glucose reduction rates were calculated by the formula given above. The blood glucose levels were measured using a Glucose CIT-Test Wako (Wako Pure Chemical Industries, Ltd.).

Setting [1] is: Mus musculus, sc, 2 h, 75 mg/kg, read-out: Blood glucose reduction rate (%).
Where [2] appears, read: Mus musculus, sc, 2 h, read-out: Blood glucose reduction rate (%).
[3] abbreviates: Mus musculus, sc, 2 h, 200 mg/kg, read-out: Blood glucose reduction rate (%).

Several values for one entry are separate records, joined by “and”; a condition that tells them apart may be missing. Equal values may be shown once.

Consider `Cc1ccc(CNC(=N)NC(=N)N)o1` [1-(5-methylfurfuryl) biguanide], for which the inhibition in vivo at 25 mg/kg in the series on db/db mice (Mus musculus, sc, 2 h, 25 mg/kg, read-out: Blood glucose reduction rate (%)) was determined as 24.7%. Moreover, the inhibition in vivo at 50 mg/kg with db/db mice (Mus musculus, sc, 2 h, 50 mg/kg, read-out: Blood glucose reduction rate (%)) was 46.1%. The inhibition in vivo at 75 mg/kg in the series on db/db mice (setting [1]) worked out at 54.7%. Also, the inhibition in vivo at 100 mg/kg in the series on db/db mice (setting [2]) amounted to 86.6%. Besides, the “Blood lactic acid level increase rate (%)” value was found to be 3.9% in the series with db/db mice (25 mg/kg), 1.3% with db/db mice (50 mg/kg) and 14.7% with db/db mice (75 mg/kg).
In the case of `CSCc1ccoc1CNC(=N)NC(=N)N` [1-[(3-Methylthiomethylfuran-2-yl)methyl] Biguanide], the inhibition in vivo at 150 mg/kg in the series with db/db mice (setting [2]) worked out at 47.3%.
On to `Cc1cc(CNC(=N)NC(=N)N)oc1C` [1-[(4,5-Dimethylfuran-2-yl)methyl] Biguanide], for which the inhibition in vivo at 75 mg/kg in the series on db/db mice (setting [1]) is 52%.
As to `CSc1coc(CNC(=N)NC(=N)N)c1` [1-[(4-Methylthiofuran-2-yl)methyl] Biguanide], the inhibition in vivo at 75 mg/kg with db/db mice (setting [1]) amounted to 44.1%. Further, in the series on db/db mice (setting [2]), the inhibition in vivo at 100 mg/kg was 47.5% and the inhibition in vivo at 150 mg/kg worked out at 58.1%. Also, the inhibition in vivo at 200 mg/kg with db/db mice (setting [3]) came out at 73.9%.
For the compound `CSCc1ccc(CNC(=N)NC(=N)N)o1` [1-[(5-Methylthiomethylfuran-2-yl)methyll] Biguanide], the inhibition in vivo at 75 mg/kg in the series on db/db mice (setting [1]) was 46%.
In the case of `CCc1ccc(CNC(=N)NC(=N)N)o1` [1-[(5-ethylfuran-2-yl)methyl] biguanide, 1-[(5-Ethylfuran-2-yl)methyl] Biguanide], the inhibition in vivo at 75 mg/kg in the series with db/db mice (setting [1]) was found to be 71.3%.
With `CC(C)(C)c1ccc(CNC(=N)NC(=N)N)o1` [1-[(5-tert-butylfuran-2-yl)methyl] Biguanide], the inhibition in vivo at 75 mg/kg in the series on db/db mice (setting [1]) came to 62.1%.
Turning to `N=C(N)NC(=N)NCc1ccco1` [Furfuryl biguanide, Furfuryl Biguanide], the inhibition in vivo at 20 mg/kg in the series with db/db mice (Mus musculus, sc, 2 h, 20.0 mg/kg, read-out: Blood glucose reduction rate (%)) is 46.9%. Besides, the inhibition in vivo at 40 mg/kg in the series with db/db mice (Mus musculus, sc, 2 h, 40.0 mg/kg, read-out: Blood glucose reduction rate (%)) worked out at 52.3%. For the same compound, in the series on db/db mice (setting [1]), the inhibition in vivo at 75 mg/kg is 60.6%. For the same compound, in the series with db/db mice (Mus musculus, sc, 2 h, 80.0 mg/kg, read-out: Blood glucose reduction rate (%)), the inhibition in vivo at 80 mg/kg was determined as 68.7%. Further, the “Blood lactic acid level increase rate (%)” value in the series on db/db mice (20.0 mg/kg) was 7.0%; in the series with db/db mice (40.0 mg/kg), 16.7%; in the series on db/db mice (75 mg/kg) it was 22.0%; in the series with db/db mice (80.0 mg/kg), 11.2%. Also, the “Blood glucose reduction rate (%)” value in the series with KKAy mice (25.0 mg/kg) was 8.7%; in the series with KKAy mice (50.0 mg/kg), 15.2%; with KKAy mice (100.0 mg/kg), 29.4%; in the series on KKAy mice (200.0 mg/kg), 43.9%; with KKAy mice (300.0 mg/kg), 48.0%.
Consider `CN(C)C(=N)N=C(N)N` [Metformin, reference compound], for which, in the series on db/db mice (setting [2]), the inhibition in vivo at 100 mg/kg was determined as 19.4%. Moreover, the inhibition in vivo at 200 mg/kg with db/db mice (setting [3]) was 37.5%. Further, the “Blood lactic acid level increase rate (%)” value in the series with db/db mice (200 mg/kg, 200 mg/kg) was 36.8% and 42.7%; in the series on db/db mice (300 mg/kg, 300 mg/kg), 133.7% and 155.9% and 138.9% and 145.9%. In addition, the “Blood glucose reduction rate (%)” value in the series on KKAy mice (150.0 mg/kg) stood at 11.6%; in the series with KKAy mice (300.0 mg/kg), 6.4%; in the series with KKAy mice (600.0 mg/kg) it was 21.8%; with KKAy mice (900.0 mg/kg), 32.7%; with KKAy mice (1350.0 mg/kg), 46.4%.

Source of the values: patent US20040063780A1, “Pharmaceutical preparations for treatment of type II diabetes and methods for treatment of type II diabetes” (CHUGAI SEIYAKU KABUSHIKI KAISHA, priority 2002, published 2004).
